# Literature values, collected in patent publication US7067586B2, “Methods of making ABA-type block copolymers having a random block of hydrophobic and hydrophilic monomers” (Symyx Technologies, Inc., priority 2000, dated 2006).
# Read-outs that look alike come from different tables or passages of the source.
# Conditions: octanol-water partition coefficient of the monomer, approximate values from web-site estimation program or Hansch et al.
SMILES,log P,log P (listed as t-butyl acrylate)
C=C(C)C(=O)OCCN(C)C [dimethyl aminoethyl methacrylate],~0.97,
C=C(C)C(=O)OCCO [2-hydroxyethylmethacrylate],about 0.47,
C=C(C)C(=O)O [methacrylic acid],~0.93,
C=C(C)C(=O)OCCCC [n-butyl methacrylate],~2.36,
C=CC(=O)OCCO [2-hydroxyethylacrylate],about −0.21,
O=C(O)/C=C\C(=O)O [maleic acid],~−0.48,
C=C(C)C(=O)OC(C)(C)C [t-butyl methacrylate],~2.54,
C=CCO [allyl alcohol],~0.17,
C=C(C)C(=O)OC [methyl methacrylate],~1.38,
C=CC(=O)OC(C)(C)C [tert-butylacrylate],about 2.09,~2.09
C=CC(=O)NC(C)(C)C [N-t-butyl acrylamide],~1.02,
C=Cc1ccccc1 [styrene],about 2.95,
C=CC(=O)OCCOC [2-methoxyethylacrylate],about 0.45,
C=C(C)C(N)=O [methacrylamide],~−0.26,
C=C(CC(=O)O)C(=O)O [itaconic acid],~−0.34,
C=C(C)C(=O)OCC(C)C [isobutyl methacrylate],~2.66,
